Values quoted from earlier work as cited in US20180295833A1, “METHOD FOR SUPPRESSION OF OR PROTECTION FROM ISCHEMIA/REPERFUSION INJURY OF ORGANS FOR TRANSPLANTATION” (MiZ Company Limited, priority 2017, published 2018).

Settings: normal temperature and normal pressure of 15° C. to 25° C. and 1 atm

SMILES: [HH] [molecular hydrogen]
- saturation concentration of molecular hydrogen: 1.6 ppm
